# Assay results published in patent US10988792B2, “Methods for antimicrobial resistance determination” (bioMerieux, Inc., priority 2009, dated 2021).
# Assays:
# [1] = system: S. aureus ATCC 25923 (Methicillin-Sensitive; MSSA); assay: BOCILLIN-FL binding after NaOH treatment (harsh pretreatment), oil blend separation; conditions: for MSSA/MRSA Ratio: MSSA (25923)/MRSA (D14906); for BOCILLIN-FL binding, fluorescence emission at 510 nm (excitation 490 nm): MSSA (25923)
# Experimental: (§1) Two experimental approaches were used to test BOCILLIN™-FL (Molecular Probes, Invitrogen) binding to S. aureus: (1) treating cells with sodium hydroxide (NaOH), neutralizing, adding BOCILLIN™-FL, then separating the cells (harsh pretreatment); and (2) culturing cells with BOCILLIN™-FL, then separating the cells (metabolic labeling).
# (§2) For the first method, S. aureus strains ATCC 25923 (Methicillin-Sensitive; MSSA) and D14906 (Methicillin-Resistant; MRSA) were cultured until exponential growth (6 hours) in tryptic soy broth (TSB). Samples of each suspension (0.9 ml in TSB) and 0.1 N NaOH (0.1 ml; ±20 μl 7.5% TRITON® X100-R) were vortexed for 5 seconds, then either neutralized immediately or after 1 minute by adding 1 M KH2PO4 (0.125 ml) and vortexing for 5 seconds. BOCILLIN™-FL (15 μl of 1.0 mg/ml) was added to the suspension, which was then vortexed, and incubated for 5 minutes at room temperature. Unbound BOCILLIN™-FL was removed by centrifuging the mixture over 0.2 ml of an oil blend optimized to separate microorganisms from culture media (1.0 part of Type DF microscope immersion oil+0.875 parts of Drakeol 5 mineral oil) at 10,000 rpm for 1 minute. The supernatant and oil layer were removed and the pellet resuspended in 3.0 ml PBS, pH 7.4. The sample was scanned in the FluoroLog-3 system at an excitation wavelength of 490 nm and the fluorescence emission at 510 nm was recorded.
# [2] = system: S. aureus D14906 (Methicillin-Resistant; MRSA); assay: as above
# Experimental: as §1, §2
smiles,measurement,setting,value
Cc1cc(C)n2c1C=C1C=CC(CCC(=O)Nc3ccc(OCC(=O)N[C@@H]4C(=O)N5[C@@H]4SC(C)(C)[C@@H]5C(=O)[O-])cc3)=[N+]1[B-]2(F)F.[Na+] [BOCILLIN™-FL],MSSA/MRSA Ratio,[1]; a = 5″ at pH 12,2.3
same,MSSA/MRSA Ratio,[1]; b = 60″ at pH 12,1.1
same,MSSA/MRSA Ratio,[1]; c = 5″ at pH 12 + TX100,1.5
same,MSSA/MRSA Ratio,[1]; d = 60″ at pH 12 + TX100,2.0
same,"BOCILLIN-FL binding, fluorescence emission at 510 nm (excitation 490 nm)",[1]; a = 5″ at pH 12,3.7 × 10^6
same,"BOCILLIN-FL binding, fluorescence emission at 510 nm (excitation 490 nm)",[1]; b = 60″ at pH 12,1.0 × 10^6
same,"BOCILLIN-FL binding, fluorescence emission at 510 nm (excitation 490 nm)",[1]; c = 5″ at pH 12 + TX100,0.9 × 10^6
same,"BOCILLIN-FL binding, fluorescence emission at 510 nm (excitation 490 nm)",[1]; d = 60″ at pH 12 + TX100,0.8 × 10^6
same,"BOCILLIN-FL binding, fluorescence emission at 510 nm (excitation 490 nm)",[2]; a = 5″ at pH 12,1.6 × 10^6
same,"BOCILLIN-FL binding, fluorescence emission at 510 nm (excitation 490 nm)",[2]; b = 60″ at pH 12,0.9 × 10^6
same,"BOCILLIN-FL binding, fluorescence emission at 510 nm (excitation 490 nm)",[2]; c = 5″ at pH 12 + TX100,0.6 × 10^6
same,"BOCILLIN-FL binding, fluorescence emission at 510 nm (excitation 490 nm)",[2]; d = 60″ at pH 12 + TX100,0.4 × 10^6
